What all share (assay): DTP human tumour cell line panel, 48 h
Assay [1] concerns DMS-273.
Assay [2] concerns OVCAR-4.
For assay [3], the system named is NCI-H23.
For assay [4], the system named is SNB-75.
The subject of assay [5] is SK-MEL-5.
For assay [6], the system named is M19-MEL.
In assay [7] the test system is UACC-62.
Assay [8] has as its system SR.
In assay [9] the test system is CAKI-1.
In assay [10] the test system is SF-295.
The subject of assay [11] is HCT-15.
Assay [12] relates to HOP-62.
Assay [13] concerns KM12.
The test system of assay [14] is HCC 2998.
Assay [15] relates to SK-MEL-2.
The subject of assay [16] is UACC-257.
For assay [17], the system named is OVCAR-3.
In assay [18] the test system is DLD-1.
Assay [19] has as its system DU-145.
Assay [20] deals with MDA-MB-435.

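Following 48 hours of exposure in 96-well plates, responses at five concentrations were used to interpolate endpoints linearly. The concentration for 50% growth inhibition is given as GI50.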 Activity calls are given as the source filed them. No stated cut-off is given here; in the data, active = GI50 up to about 1.1 µM and inactive = higher. Where only a bound is given, the exact number is not on record here.

Consider `Cc1nc2cc3nc4ccccc4c(O)c3cc2s1`, for which the GI50 in [1], in assay [2], in assay [3], in assay [4], in assay [5] and in [6] was > 100 µM (inactive) each time. Further, the GI50 is > 100 µM (inactive) in assay [7]; > 100 µM (inactive) in [8]; > 100 µM (inactive) in assay [9]; > 100 µM (inactive) in assay [10]; more than 100 µM in [11]; > 100 µM (inactive) in [12]. Further, the GI50 in assay [13], in assay [14], in [15], in [16] and in [17] was > 100 µM (inactive) in each case.
Regarding `COC(=O)N/N=C(\C)CC(=O)Nc1cccc([N+](=O)[O-])c1`, the GI50 in assay [1], in assay [3], in assay [4], in assay [5], in assay [6] and in assay [7] was > 100 µM (inactive) each time. Also, the GI50 in assay [10], in assay [12], in assay [13], in assay [14], in assay [15] and in [18] was > 100 µM (inactive) throughout. For the same molecule, the GI50 in [16] and in assay [17] was > 100 µM (inactive) each time.
Regarding `O=[N+]([O-])c1ccc(NSc2ccccc2)cc1`, the GI50 in [1] was 15.4 µM (inactive); in [3], 45.6 µM (inactive); in assay [5], 31.8 µM (inactive); in assay [7], 20.1 µM (inactive); in [8], 10.7 µM (inactive); in assay [10], 27.6 µM (inactive). The GI50 is 19.8 µM in assay [11]; 33.3 µM (inactive) in [12]; 27.8 µM (inactive) in [13]; 50.6 µM (inactive) in assay [14]; 42.9 µM (inactive) in assay [15]; 24.8 µM (inactive) in assay [18]. In addition, the GI50 in assay [16] is 29.3 µM (inactive); in [17], 34.8 µM (inactive).
`COc1ccc(CCn2c(=O)c3ccccc3n(C)c2=O)cc1`: the GI50 is > 100 µM (inactive) in [2]; 48.6 µM (inactive) in assay [3]; 25.9 µM (inactive) in [4]; 31 µM (inactive) in [5]; 19.3 µM (inactive) in [6]; 24.2 µM (inactive) in [7]. Moreover, the GI50 in [9] was 38.5 µM (inactive); in [10], 30.2 µM (inactive); in assay [12], 26.4 µM (inactive); in assay [13], 8.77 µM (inactive); in assay [14] it was 21 µM (inactive); in assay [15] it was 20.5 µM (inactive). Moreover, the GI50 was 28.6 µM (inactive) in [18], 61.7 µM (inactive) in [16] and 34.4 µM (inactive) in assay [17].
For `Nc1c(S(=O)(=O)c2ccc(Cl)cc2)c2nc3ccccc3nc2n2ccnc12`, the GI50 in [1] was 82 µM (inactive); in [2] it was 14.5 µM (inactive); in [3], > 100 µM (inactive); in assay [4], 31.6 µM (inactive); in assay [5], > 100 µM (inactive); in assay [6], > 100 µM (inactive). Besides, the GI50 in assay [10] is > 100 µM (inactive); in assay [11], more than 100 µM; in assay [13], > 100 µM (inactive); in assay [14], > 100 µM (inactive); in assay [15], > 100 µM (inactive); in [18], > 100 µM (inactive). Also, the GI50 in assay [16] and in assay [17] was > 100 µM (inactive) throughout.
Turning to `COc1ccc(Nc2nnc(-c3nsc4ccccc34)s2)cc1`, the GI50 was > 100 µM (inactive) in assay [19]; 47.1 µM (inactive) in assay [1]; 2.47 µM (inactive) in [2]; > 100 µM (inactive) in assay [3]; 2.6 µM (inactive) in assay [4]; > 84.3 µM (inactive) in assay [5]. Further, the GI50 in assay [6] is > 100 µM (inactive); in assay [7], > 100 µM (inactive); in [8], 39.9 µM (inactive); in assay [9] it was 54.5 µM (inactive); in assay [10], 10.8 µM (inactive); in assay [11] it was 62.8 µM. In addition, the GI50 in assay [12] was 8.26 µM (inactive); in assay [13] it was > 100 µM (inactive); in [20] it was > 100 µM (inactive); in assay [14] it was > 56.4 µM (inactive); in assay [15] it was 78.7 µM (inactive); in [16], > 100 µM (inactive). Further, the GI50 in assay [17] is 63 µM (inactive).
Regarding `COc1ccc(/N=N/C(=N/NC(=O)c2ccccc2)c2ccc(N(CCC#N)CCC#N)cc2C)cc1`, the GI50 in [19] is 81.3 µM (inactive); in assay [2], > 100 µM (inactive); in assay [3], 25.5 µM (inactive); in assay [4], 43 µM (inactive); in assay [5] it was 18.2 µM (inactive); in assay [7] it was 38.5 µM (inactive). Moreover, the GI50 was 6.19 µM (inactive) in assay [8]; > 100 µM (inactive) in [9]; 21.5 µM (inactive) in [10]; 26.1 µM in assay [11]; 51.6 µM (inactive) in assay [12]; 11.6 µM (inactive) in assay [13]. The GI50 in [20] is 5.43 µM (inactive); in assay [14] it was 12.4 µM (inactive); in assay [15] it was 88.5 µM (inactive); in [16] it was 78.7 µM (inactive); in assay [17] it was 17.7 µM (inactive).
As to `COc1cc(/C=C2/CCCc3ccccc3C2=O)cc(OC)c1OC`, the GI50 in [19] is 11.9 µM (inactive); in [2], 17.2 µM (inactive); in assay [3] it was 18.4 µM (inactive); in assay [4], 12.4 µM (inactive); in assay [5], 3.27 µM (inactive); in [7] it was 16.4 µM (inactive). Also, the GI50 in [8] is 2.74 µM (inactive); in assay [9] it was 18.8 µM (inactive); in assay [10], 18.4 µM (inactive); in [11], 12.6 µM; in assay [12] it was 24.2 µM (inactive); in [13] it was 11.7 µM (inactive). For the same molecule, the GI50 in [20] is 7.85 µM (inactive); in assay [14], 22.5 µM (inactive); in assay [15], 20.6 µM (inactive); in [16], 12.9 µM (inactive); in assay [17] it was 19.2 µM (inactive).
For the molecule `CC(C)N(C(=O)C12C3(C(=O)C(C)(C)C)C4C5(C#N)C3C1(C(=O)C(C)(C)C)C5C42C(=O)C(C)(C)C)C(C)C` (centres undefined), the GI50 was > 100 µM (inactive) in assay [19]; > 100 µM (inactive) in assay [2]; > 100 µM (inactive) in assay [3]; 14.1 µM (inactive) in [4]; > 100 µM (inactive) in assay [5]; > 100 µM (inactive) in assay [7]. Further, the GI50 in assay [8] was > 100 µM (inactive); in [9] it was > 100 µM (inactive); in assay [10], > 100 µM (inactive); in [11], more than 100 µM; in [12], > 100 µM (inactive); in assay [13] it was > 100 µM (inactive). In addition, the GI50 in [20], in [14], in [15], in [16] and in assay [17] was > 100 µM (inactive) each time.

By GI50 is commonly meant the concentration that inhibits growth by half.

These data come from ChEMBL document CHEMBL1201862, “PubChem BioAssay data set” (2004).
